One test has as its system OF1 mice. The test is described as follows: Murine maximal electroshock test (MES Test). It counts as in vivo. Particulars: 1 h; for MES-Test (1 h, po) protection @50: percentage of protected mice (5 per condition) @50, p.o. On the procedure:
(§1) Compounds of the invention were tested in OF1 mice using the maximal electroshock test (MES Test) described in detail by Schmutz et al., Naunyn-Schmiedeberg's Arch Pharmacol 1990, 342, 61-66. Briefly, generalized tonic-clonic convulsions of the hind extremities were induced by passing electrical current through temporal electrodes (50 Hz, 18 mA, 0.2s). […] 30 mg/kg carbamazepine was used as a positive control; mice were classified as protected by a compound if the duration of the seizure lasted only 3 second or less. Five mice were used for each treatment condition and the percentage of protected mice was used as readout (i.e. a compound could give 0%, 20%, 40%, 60%, 80% or 100% protection). Compounds of the invention were given at a dose of 50 mg/kg, p.o., 1 hour prior to induction of convulsions (i.e. “pre-treatment time -1 h”). ED50 values (ED: effective dose) were calculated using GraphPad Prism, v4.02. 15 s after shock administration, mouse blood was collected for determination of compounds' blood exposure.
Background: In the maximal electroshock model the usual endpoint is tonic extension of the hind limbs.

A further test concerns mouse. The experiment in a line: Oral bioavailability: audiogenic mouse test and/or MES test. The format is in vivo. To be noted: oral administration. The procedure:
The oral bioavailability was tested using the audiogenic mouse test (Audiogenic seizures, R. L. Collins; Chapter 14, pages: 347-372. In: Experimental Models of Epilepsy; By: Pupura, Penry, Tower, Woodbury, Walter, Raven Press, New York, 1972. Standard Book Number: 0-911216-26-X) and/or the MES test.
as §1

For `Cn1nccc1-c1cc2c(=O)n(NS(C)(=O)=O)c(=O)[nH]c2cc1C(C)(F)F` [Compound C-15, N-[7-(1,1-difluoro-ethyl)-6-(2-methyl-2H-pyrazol-3-yl)-2,4-dioxo-1,4-dihydro-2H-quinazolin-3-yl]-methanesulfonamide], the “MES-Test (1 h, po) protection @20” value in the test with OF1 mice (percentage of protected mice (5 per condition) @20, p.o.) was found to be 80% @20. In the test on mouse, the “In vivo orally active” value is reported as “Yes”.
Take `CC(C)c1cc2[nH]c(=O)n(NS(C)(=O)=O)c(=O)c2cc1-c1ccnn1C(C)C` [Compound C-8, N-[7-Isopropyl-6-(2-isopropyl-2H-pyrazol-3-yl)-2,4-dioxo-1,4-dihydro-2H-quinazolin-3-yl]-methanesulfonamide]: the “MES-Test (1 h, po) protection @50” value in the test on OF1 mice was found to be 40% @50. Also, the “In vivo orally active” value in the test with mouse is given as “yes”.
For `COCCn1nccc1-c1cc2c(=O)n(NS(C)(=O)=O)c(=O)[nH]c2cc1C(C)C` [Compound C-1, N-{7-Isopropyl-6-[2-(2-methoxy-ethyl)-2H-pyrazol-3-yl]-2,4-dioxo-1,4-dihydro-2H-quinazolin-3-yl}-methanesulfonamide], the “MES-Test (1 h, po) protection @25” value in the test on OF1 mice (percentage of protected mice (5 per condition) @25, p.o.) amounted to 40% @25. In addition, in the test with mouse, the “In vivo orally active” value was “yes”.
Regarding `Cn1nncc1-c1cc2c(=O)n(NS(C)(=O)=O)c(=O)[nH]c2cc1C(F)(F)F` [Comparative, N-(6-(1-methyl-1H-1,2,3-triazol-5-yl)-2,4-dioxo-7-trifluoromethyl-1,4-dihydro-2H-quinazolin-3-yl]-methanesulfonamide, reference compound], the “MES-Test (1 h, po) protection @50” value in the test with OF1 mice was determined as 0% @50. Moreover, the “In vivo orally active” value in the test with mouse is reported as “No”.

These data come from patent publication US20130096145A1, “Use of 1H-quinazoline-2,4-diones” (Novartis AG, priority 2010, published 2013).
